Laboratory results reported in the SangsterLogP compilation.
Values belong to the compound of their own block, whether it stands above or below them. Where a SMILES comes first, the peptide text is derived from it.

What was measured:
[1] = method code SF-HPLC, from DOI: 10.1016/0168-3659(88)90058-2; settings: pH 7.4
[2] = method code SF-RC, from DOI: 10.1016/j.nucmedbio.2016.01.003, PMID: 27067043; settings: pH 7.4
[3] = method code SF-AS, from DOI: 10.1016/j.bmc.2007.10.035, PMID: 18029186; settings: pH 7.4
[4] = method code SF, from DOI: 10.1002/ps.2780350215
[5] = method code SF-AS, from DOI: 10.1016/s0022-5347(24)07568-2, PMID: 4149453; settings: pH 7.5
[6] = method code SF-EN, from DOI: 10.1016/s0022-2275(20)42614-8, PMID: 2280184; settings: pH 1.0
[7] = method code SF-RC, from DOI: 10.1016/0361-9230(85)90153-4, PMID: 2413968
[8] = method code SF-RC, from DOI: 10.1016/j.nucmedbio.2003.12.003, PMID: 15093819; settings: pH 7.0
[9] = method code SF-HPLC, from DOI: 10.1002/jps.2600800905, PMID: 1800703
[10] = method code SF-HPLC, from DOI: 10.1016/j.bmc.2009.01.040, PMID: 19208447; settings: pH 7.0
[11] = method code SF-RC, from DOI: 10.1016/j.nucmedbio.2005.06.001, PMID: 16253804; settings: pH 7.4
[12] = method code SF-RC, from DOI: 10.1002/jlcr.1076; settings: pH 7.4
[13] = method code RP-HPLC, from DOI: 10.1021/jm00011a007, PMID: 7540207
[14] = method code SF-HPLC, from DOI: 10.1016/0378-5173(89)90313-x; settings: pH 7.4
[15] = method code SF-AS, from DOI: 10.1016/s0022-3565(25)38749-5, PMID: 8182532; settings: pH 7.4
[16] = method code RP-TLC, from DOI: 10.1016/s0021-9673(03)00617-4, PMID: 12830921

Structure (SMILES): C#CC1(OC(=O)OCCCCC(O)CO)CCC2C3CCC4=CC(=O)CCC4C3CCC21CC (centres undefined)
logD [1]: 3.75

Structure (SMILES): CCOC(=O)CC[C@H](NC(=O)c1ccc(N(C)Cc2cnc3nc(N)nc(N)c3n2)cc1)C(=O)OCC
logD [5]: 0.98

Structure (SMILES): CC(C)C[C@H](NC(=O)[C@@H]1CCCN1C(=O)[C@@H](N)Cc1ccc(O)cc1)C(=O)NCC(N)=O (H-YPLG-NH2)
logP [7]: 0.06

Structure (SMILES): CC(C(=O)OCC(O)C(O)C(O)C(O)CO)c1cccc(C(=O)c2ccccc2)c1 (centres undefined)
logD [10]: 0.78

Structure (SMILES): CNc1ccc(C=Cc2ccc(OCCOCCOCCOCCF)cc2)cc1
logD [11]: 2.05

Structure (SMILES): NC(=O)CC[C@@H]1NC(=O)[C@H](Cc2ccccc2)NC(=O)[C@H](Cc2ccc(O)cc2)NC(=O)[C@@H](N)CSSC[C@@H](C(=O)N2CCC[C@H]2C(=O)N[C@@H](CCCN=C(N)N)C(=O)NCC(N)=O)NC(=O)[C@H](CC(N)=O)NC1=O
logP [7]: -2.15

Structure (SMILES): CCCCCN=c1ccn(Cc2cccc3ccccc23)c2cc(Cl)ccc12
logP [13]: 4.01

Structure (SMILES): CN1C=CCC(C(=O)NC2CCC(OC(=O)CCCc3ccc(N(CCCl)CCCl)cc3)CC2)=C1 (centres undefined)
logD [14]: 2.85

Structure (SMILES): CCc1cccc(CC)c1NC(=O)c1c(C)n(CCc2ccccc2)c(C)c(Br)c1=O
logP [4]: 3.63

Structure (SMILES): CN1C=CCC(C(=O)NCCOC(=O)CCCc2ccc(N(CCCl)CCCl)cc2)=C1
logD [14]: 2.16

Structure (SMILES): COC(=O)CC[C@H](NC(=O)c1cc(Cl)c(N(C)Cc2cnc3nc(N)nc(N)c3n2)c(Cl)c1)C(=O)OC
logD [5]: 1.69

Structure (SMILES): C#CC1(OC(=O)OCC(O)CO)CCC2C3CCC4=CC(=O)CCC4C3CCC21CC (centres undefined)
logD [1]: 3.22

Structure (SMILES): CC(C(=O)OCC(O)C(O)C(O)C(O)C=O)c1cccc(C(=O)c2ccccc2)c1 (centres undefined)
logD [10]: 1.26

Structure (SMILES): CN1CCN(C(COCc2cc(C(F)(F)F)cc(C(F)(F)F)c2)c2ccccc2)CC1 (centres undefined)
logP: 3.2

Structure (SMILES): COC(=O)CN1CCN(C(COCc2cc(C(F)(F)F)cc(C(F)(F)F)c2)c2ccccc2)CC1 (centres undefined)
logP: 3.11

Structure (SMILES): CCCCCN=c1ccn(Cc2ccc3ccccc3c2)c2cc(Cl)ccc12
logP [13]: 4.16

Structure (SMILES): CNc1ccc(C=Cc2ccc(OCCOCCOCCOCCOCCF)cc2)cc1
logD [11]: 2.28

The remaining lines, values ahead:

logD [2]: 2.67
Structure (SMILES): C=CC(=O)Nc1ccc(S(=O)(=O)N2CCN(C(=O)C34CC5CC(CC(C5)C3)C4)CC2)cc1

logD [3]: -0.98
Structure (SMILES): CC(=O)OCC1OC(OCCN(C)C(=O)n2ccnc2[N+](=O)[O-])C(OC(C)=O)C(OC(C)=O)C1OC(C)=O (centres undefined)

logP [4]: 2.52
Structure (SMILES): CCCCn1c(C)cc(=O)c(C(=O)Nc2c(CC)cccc2CC)c1C

logD [6]: 1.9
Structure (SMILES): CC(CCC(=O)NCC(=O)O)C1CCC2C3C(O)CC4CC(O)CCC4(C)C3CC(C)(O)C12 (centres undefined)

logD [3]: -1.29
Structure (SMILES): CC(=O)NC1C(OCCN(C)C(=O)Cn2ccnc2[N+](=O)[O-])OC(COC(C)=O)C(OC(C)=O)C1OC(C)=O (centres undefined)

logD [8]: 2.09
Structure (SMILES): O=C(NCCc1ccc(S(=O)(=O)NC2CCCCC2)cc1)c1cc(Cl)ccc1OCCF

logD [6]: 2.8
Structure (SMILES): C[C@H](CCC(=O)O)[C@H]1CC[C@H]2[C@@H]3C[C@H](O)[C@@H]4C[C@H](O)CC[C@]4(C)[C@H]3C[C@H](O)[C@]12C

logD ([9]; pH 7.0): 3.85
Structure (SMILES): CC[C@H](C)C(=O)O[C@H]1CCC=C2C=C[C@H](C)[C@H](CC[C@@H]3C[C@@H](O)CC(=O)O3)[C@H]21

logD [12]: 2.5
Structure (SMILES): COc1ccc2c(c1)C1(C)CCC3c4ccc(O)c(I)c4CCC3C1C2 (centres undefined)

logD [2]: 3
Structure (SMILES): C=CC(=O)NCCCCC(NC(=O)OCc1ccccc1)C(=O)N1CCN(c2ccccc2Cl)CC1 (centres undefined)

logD [12]: 1.8
Structure (SMILES): COc1ccc2c(c1)C1(C)CCC3c4cc(I)c(O)cc4CCC3C1C2 (centres undefined)

logD [15]: 5.2
Structure (SMILES): CCCCCCCCCCOc1ccc(C(=O)Nc2cc(C(=O)NCCCC)ccc2SC)cc1

logD [8]: 2.15
Structure (SMILES): O=C(NCCc1ccc(S(=O)(=O)NC2CCCCC2)cc1)c1cc(I)ccc1OCCF

logP [16]: 3.62
Structure (SMILES): CCC12C=C(C(=O)OCCO)n3c4c(c5ccccc53)CCN(CCC1)C42 (centres undefined)

logP [16]: 3.89
Structure (SMILES): CCC12C=C(C(=O)OCCCO)n3c4c(c5ccccc53)CCN(CCC1)C42 (centres undefined)

logD ([9]; pH 2.0): 4.47
Structure (SMILES): CCC(C)(C)C(=O)O[C@H]1C[C@@H](C)C=C2C=C[C@H](C)[C@H](CC[C@@H](O)C[C@@H](O)CC(=O)O)[C@H]21 (relative stereo)

logD [15]: 4.8
Structure (SMILES): CC(C)CCC(=O)CC1c2ccccc2C(=O)N1c1ccc2ccc(Cl)nc2n1 (centres undefined)
